Laboratory results published in PubChem BioAssay (NCI).
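Where inhibition never reached the appropriate level, the endpoint shown equals the highest concentration tested. Otherwise, values were interpolated linearly from a five-concentration, 48-hour dose response in 96-well plates. Definition used: TGI = concentration required for complete inhibition of growth.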

Assays:
Assay in all cases: inhibition of tumour cell growth, NCI panel, 48 h
UO-31 renal = test system: UO-31 renal
ACHN renal = test system: ACHN renal
A549 NSCLC = test system: A549 NSCLC
XF 498 CNS = test system: XF 498 CNS
786-0 renal = test system: 786-0 renal
SF-268 CNS = test system: SF-268 CNS
CAKI-1 renal = test system: CAKI-1 renal
SK-OV-3 ovarian = test system: SK-OV-3 ovarian
OVCAR-4 ovarian = test system: OVCAR-4 ovarian
SF-295 CNS = test system: SF-295 CNS
KM20L2 colon = test system: KM20L2 colon
K-562 leukemia = test system: K-562 leukemia
SNB-75 CNS = test system: SNB-75 CNS
NCI-H460 lung = test system: NCI-H460 lung
HL-60(TB) leukemia = test system: HL-60(TB) leukemia
DLD-1 colon = test system: DLD-1 colon
SNB-78 CNS = test system: SNB-78 CNS
SW-620 colon = test system: SW-620 colon
OVCAR-5 ovarian = test system: OVCAR-5 ovarian
M19-MEL melanoma = test system: M19-MEL melanoma
MALME-3M melanoma = test system: MALME-3M melanoma
HT29 colon = test system: HT29 colon
MOLT-4 leukemia = test system: MOLT-4 leukemia
HOP-18 NSCLC = test system: HOP-18 NSCLC
DMS 273 small cell lung = test system: DMS 273 small cell lung
COLO 205 colon = test system: COLO 205 colon
NCI-H23 lung = test system: NCI-H23 lung
NCI-H226 lung = test system: NCI-H226 lung
RPMI-8226 leukemia = test system: RPMI-8226 leukemia
HCT-116 colon = test system: HCT-116 colon
DMS 114 small cell lung = test system: DMS 114 small cell lung
EKVX NSCLC = test system: EKVX NSCLC
SK-MEL-5 melanoma = test system: SK-MEL-5 melanoma
LXFL 529 NSCLC = test system: LXFL 529 NSCLC
SK-MEL-28 melanoma = test system: SK-MEL-28 melanoma
SF-539 CNS = test system: SF-539 CNS
HCT-15 colon = test system: HCT-15 colon
TK-10 renal = test system: TK-10 renal
HCC-2998 colon = test system: HCC-2998 colon
OVCAR-3 ovarian = test system: OVCAR-3 ovarian
SN12C renal = test system: SN12C renal
U251 CNS = test system: U251 CNS
SK-MEL-2 melanoma = test system: SK-MEL-2 melanoma
CCRF-CEM leukemia = test system: CCRF-CEM leukemia
A498 renal = test system: A498 renal
LOX IMVI melanoma = test system: LOX IMVI melanoma
NCI-H522 lung = test system: NCI-H522 lung
KM12 colon = test system: KM12 colon
HOP-92 NSCLC = test system: HOP-92 NSCLC
SNB-19 CNS = test system: SNB-19 CNS
SR leukemia = test system: SR leukemia
IGROV1 ovarian = test system: IGROV1 ovarian
UACC-257 melanoma = test system: UACC-257 melanoma
UACC-62 melanoma = test system: UACC-62 melanoma
RXF 393 renal = test system: RXF 393 renal
OVCAR-8 ovarian = test system: OVCAR-8 ovarian
M14 melanoma = test system: M14 melanoma

Measured: TGI

COc1ccc(OC)c(CCc2ccccc2CC(=O)O)c1
> 100 µM: all assays above

CCC1=CCC(P(=O)(c2ccccc2)c2ccccc2)CC1C (stereo not given)
83.5 µM: SK-MEL-2 melanoma
63.8 µM: HCT-116 colon
47.4 µM: NCI-H522 lung
49.7 µM: SNB-75 CNS
70.8 µM: SK-MEL-5 melanoma
60.5 µM: UO-31 renal
71.6 µM: HOP-92 NSCLC
52.9 µM: RPMI-8226 leukemia
53.6 µM: HL-60(TB) leukemia
46.2 µM: MOLT-4 leukemia
not listed: ACHN renal | DLD-1 colon | HCC-2998 colon | SR leukemia
> 100 µM: all other assays above
